Measured values from the NIST ThermoML archive (doi:10.1016/j.jct.2015.08.011).

What was measured:
[1] = excess molar enthalpy (molar enthalpy of mixing); xn = mol fraction of the nth substance listed; details: 298.15 K, 101 kPa, Liquid, Flow calorimetry
[2] = 101.33 kPa, Liquid, Vibrating tube method

COC(C)(C)CC(C)(C)C [methyl 1,1,3,3-tetramethylbutyl ether] + CO
[1]
Details	excess molar enthalpy [kcal/mol]
x2 = 0.051	0.0476
x2 = 0.097	0.0767
x2 = 0.193	0.11
x2 = 0.299	0.126
x2 = 0.391	0.128
x2 = 0.489	0.124
x2 = 0.591	0.112
x2 = 0.695	0.0966
x2 = 0.794	0.0736
x2 = 0.896	0.0425

CO [methanol]
Details	mass density [kg/m3]
[2], 298.15 K	786.2

COC(C)(C)CC(C)(C)C [methyl 1,1,3,3-tetramethylbutyl ether]
[2]
Details	mass density [kg/m3]
298.15 K	792.4
308.15 K	784.1
318.15 K	776
328.15 K	767.6
338.15 K	759.2
348.15 K	750.7
358.15 K	742.1
368.15 K	733.4
378.15 K	724.5
388.15 K	715.5
398.15 K	706.3
408.16 K	696.8
